Measurements: patent publication US20260216168A1, “MODULATION OF PD-1 SIGNALING FOR TREATMENT OF DISEASES” (Wuhan University, priority 2023, published 2026)
Entries after “also recorded” stand apart in the source; their conditions may differ.

Experiments:
[1] = test system: MARCH5-deficient Jurkat cells; test: γc level by immunoblotting in control or MARCH5-deficient Jurkat cells treated with PC; type: cell-based, human; conditions: PC 0, 0.5, 1 μM, 24 h, listed as PC
γc = γc level by immunoblotting after PC treatment of T cells and T cell lines; type: cell-based; conditions: PC 0, 0.5, 1, 2 μM, 24 h; human and mouse CD8+ T, Jurkat, HPB-ALL, CTLL2 cells; listed as PC
tumor = test: PC or rosuvastatin calcium alone or with IL-2 on tumor growth in mice; type: in vivo, mouse
Description: We further tested the anti-tumor effects of PC in mouse MC38 colorectal carcinoma and B16F10 melanoma models.

MARCH5 = target: T1, MARCH5 (Homo sapiens, UniProt Q9NX47); test: MARCH5 / γc-luciferase reporter system in co-transfected HEK293 cells (screen of FDA-approved drugs); type: cell-based
T1 construct: expressed in transfected cells; host or cells: HEK293
T1 sequence (Q9NX47 1-278): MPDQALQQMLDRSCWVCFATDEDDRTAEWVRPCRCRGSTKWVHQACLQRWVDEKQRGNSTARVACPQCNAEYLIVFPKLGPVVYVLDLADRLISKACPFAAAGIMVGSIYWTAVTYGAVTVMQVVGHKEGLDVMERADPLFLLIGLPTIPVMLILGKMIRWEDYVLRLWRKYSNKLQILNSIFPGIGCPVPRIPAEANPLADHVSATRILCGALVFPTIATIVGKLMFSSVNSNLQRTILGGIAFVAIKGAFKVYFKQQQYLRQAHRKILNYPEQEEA
Description: Unfortunately, no pharmacological inhibitors of MARCH5 have been reported. We designed a reporter system in which HEK293 cells are co-transfected with two plasmids encoding MARCH5 and γc-luciferase fusion protein respectively. In this system, inhibition of MARCH5 by an inhibitor would result in increased luciferase activity in reporter assays.
Using this system, we screened a collection of Food and Drug Administration-approved drugs and identified 10 compounds that increased luciferase activity to more than 1.5-folds (Table 1). […] Pitavastatin is a unique lipophilic statin and potent inhibitor of HMG-CoA reductase with a strong effect on lowering plasma total cholesterol and triacylglycerol. Pitavastatin has also been reported to have pleiotropic beneficial effects such as suppression of inflammation, regulation of angiogenesis and osteogenesis, improvement of endothelial function and arterial stiffness.

[2] = test system: MC38 colorectal carcinoma and B16F10 melanoma; test: Pitavastatin calcium (PC) therapy in C57BL/6j mice, MC38 and B16F10 tumor models; type: in vivo, mouse; conditions: PC alone 5 mg/kg/day i.p.; MC38 and B16F10 in C57BL/6j mice; listed as PC
Protocol: C57BL/6j mice were subcutaneously injected with 5×10^5 of MC38 or B16F10 cells. On day 3 (MC38) or 5 (B16F10) after tumor cell implantation, mice were intraperitoneally injected with control or PC (5 mg/kg/day). Tumor sizes were measured every two days by caliper. Tumor-bearing mice were euthanized on day 13 (MC38) or day 15 (B16F10). Tumor weights were measured by Analytical Balance. […] Data were analyzed using a student's unpaired t-test with GraphPad Prism 8. • (D) Effects of PC on the level of γc in TILs. TILs were isolated from the MC38 tumor tissues of FIG. 7C. TILs were stained with the indicated antibodies and analyzed by flow cytometry. […] Data were analyzed using a student's unpaired t-test with GraphPad Prism 8. […] TILs were isolated from the MC38 tumor tissues of FIG. 7C. TILs were stained with the indicated antibodies and analyzed by flow cytometry. […] C57BL/6j mice were subcutaneously injected with MC38 cells (5×10^5). […] Tumor sizes were measured every two days by caliper from day 5. […]
Pitavastatin calcium (PC) therapy in C57BL/6j mice: mice were intraperitoneally injected with control or PC (P129617, 5 mg/kg/day, dissolved in PBS, Aladdin) three (MC38 tumor) or five (B16F10 tumor) days after inoculation of tumor cells, and tumor sizes were measured every two days by caliper. […] TILs were analyzed by flow cytometry.

[3] = test system: tumor-infiltrating lymphocytes; test: Flow cytometry of tumor-infiltrating lymphocytes from MC38 tumors after PC; type: in vivo, mouse
Protocol: (§1) C57BL/6j mice were subcutaneously injected with 5×10^5 of MC38 or B16F10 cells. On day 3 (MC38) or 5 (B16F10) after tumor cell implantation, mice were intraperitoneally injected with control or PC (5 mg/kg/day). Tumor sizes were measured every two days by caliper. Tumor-bearing mice were euthanized on day 13 (MC38) or day 15 (B16F10). Tumor weights were measured by Analytical Balance. […] Data were analyzed using a student's unpaired t-test with GraphPad Prism 8. • (D) Effects of PC on the level of γc in TILs. TILs were isolated from the MC38 tumor tissues of FIG. 7C. TILs were stained with the indicated antibodies and analyzed by flow cytometry. […] Data were analyzed using a student's unpaired t-test with GraphPad Prism 8. […] TILs were isolated from the MC38 tumor tissues of FIG. 7C. TILs were stained with the indicated antibodies and analyzed by flow cytometry. […] C57BL/6j mice were subcutaneously injected with MC38 cells (5×10^5). […] Tumor sizes were measured every two days by caliper from day 5. […] C57BL/6j mice were subcutaneously injected with MC38 cells (5×10^5). […] Mice were sacrificed when the tumor size is bigger than 15 mm of the mean tumor diameter, tumor volume exceeded 2000 mm^3, or tumor had ulcers with diameter reached 10 mm. Statistical analysis was performed using the GraphPad Prism 8 software, n=8. Kaplan-Meier survival curves and corresponding log-rank (Mantel-Cox) tests were used to evaluate the statistical differences between groups in survival studies. There is a significant difference when the P<0.05.
Cells were subjected to stain with the indicated antibodies for 30 min in 4° C. The cells were analyzed and data were acquired with BD Fortessa X-20 and FACSDiva 7 software following the exemplified gating strategy for flow cytometry analysis. The data were processed using FlowJo software.
Pitavastatin calcium (PC) therapy in C57BL/6j mice: mice were intraperitoneally injected with control or PC (P129617, 5 mg/kg/day, dissolved in PBS, Aladdin) three (MC38 tumor) or five (B16F10 tumor) days after inoculation of tumor cells, and tumor sizes were measured every two days by caliper. Tumor-bearing mice were euthanized on day 13 (MC38 tumor) or day 15 (B16F10 tumor). TILs were analyzed by flow cytometry.
Tumor tissues were separated from the mice and cut into pieces. The tumor tissues were suspended with 2 ml of tumor digestion buffer (1×HBSS buffer with 5 mg/ml collagenase II and 0.1% DNaseI) and rotated for at 37° C. for 1 h. The cell suspension was filtered using a 70-μm filter to obtain single-cell suspension. […] Cells were analyzed and data were acquired with BD Fortessa X-20 and FACSDiva 7 software following the exemplified gating strategy for flow cytometry analysis. […]

MC38 cells = test: PC, IL-2 and anti-PD-1 therapy in C57BL/6j mice bearing MC38 tumors; type: in vivo; conditions: PC 5 mg/kg, IL-2 50000 IU per mouse, anti-PD-1 100 μg per mouse, i.p.
Protocol: as §1
Tumor size and mouse survival were measured every two days from day 5.
For survival studies, mice were sacrificed when the tumor size was bigger than 15 mm of the mean tumor diameter, tumor volume exceeded 2000 mm^3, or tumor had ulcers with a diameter reached 10 mm. Statistical analysis was performed using the GraphPad Prism 8 software. Kaplan-Meier survival curves and corresponding log-rank (Mantel-Cox) tests were used to evaluate the statistical differences between groups in survival studies. There is a significant difference when the P<0.05.

- Rel. Luc. Act (MARCH5; HEK293 cells co-transfected with MARCH5 and γc-luciferase fusion protein, increase = MARCH5 inhibition): 2.06
SMILES: O=C(O)C[C@H](O)C[C@H](O)/C=C/c1c(C2CC2)nc2ccccc2c1-c1ccc(F)cc1 [Pitavastatin calcium]
- γc protein level, MARCH5 dependence [1]: did not further increase its protein level; also recorded: MARCH5-deficiency impairs PC-induced up-regulation of γc; also recorded: up-regulated the level of γc in a MARCH5-dependent manner
- level of γc (immunoblotting) (γc): up-regulated the level of γc in a dose-dependent manner; also recorded: up-regulates the level of γc
- synergistic effect with IL-2 on tumor suppression (tumor; combined with IL-2, mice): has a synergistic effect
- tumor growth (tumor; statin administered alone, mice): suppressed tumor growth
- luciferase activity in MARCH5-expressing versus control HEK293 cells (MARCH5; confirmative experiments): specifically increased the luciferase activity in MARCH5-expressing but not control HEK293 cells
- tumor growth [2]: significantly suppressed tumor growth; also recorded: suppresses tumor growth; also recorded: inhibited tumor growth
- level of γc in tumor-infiltrating lymphocytes ([3]; MC38 tumors, PC 5 mg/kg/day i.p., listed as PC): higher level of γc; also recorded: up-regulated the level of γc in tumor-infiltrating lymphocytes
- percentage of TIM3+ cells in infiltrated CD8+ T cells ([3]; MC38 tumors, PC treatment): reduced the percentage of TIM3^+ cells
- percentage of GzmB+ cells in infiltrated CD8+ T cells ([3]; MC38 tumors, PC treatment, listed as PC): up-regulated the percentage of GzmB^+ cells; also recorded: increases tumor infiltrating CD8^+ cytotoxic T cells
- percentages of CD8+ T, NK, CD4+ T, Treg and B cells in tumor-infiltrating lymphocytes ([3]; after PC administration): did not show significant difference
- tumor suppression by IL-2 or IL-2 plus PD-1 blocking antibody when PC is added (MC38 cells): significantly improved the efficacy of anti-tumor immunotherapy in mice
- overall survival of mice treated with IL-2 or IL-2 plus PD-1 blocking antibody when PC is added (MC38 cells; listed as PC): significantly increased the efficacies; also recorded: promotes the survival rate of mice treated with IL-2 and PD-1 blockade
- tumor suppression by IL-2 or IL-2 plus PD-1 blocking antibody when PC is added (MC38 cells; listed as PC): significantly increased the efficacies; also recorded: potentiates the anti-tumor efficacy of IL-2 and PD-1 combination; also recorded: sensitized the anti-tumor effects of IL-2 as well as its combination with PD-1 blocking antibody
